Results on 13 molecules are retold here after ChEMBL document CHEMBL2417370, “The effect of novel [3-fluoro-(2-phosphonoethoxy)propyl]purines on the inhibition of Plasmodium falciparum, Plasmodium vivax and human hypoxanthine-guanine-(xanthine) phosphoribosyltransferases” (Eur J Med Chem, 2013).

Activity calls are given as the source filed them. The calls are words filed in the database; no cut-off is given here.

The target of test [1] is T1, Hypoxanthine-guanine phosphoribosyltransferase (Homo sapiens, UniProt P00492).
T1 sequence (P00492 whole entry): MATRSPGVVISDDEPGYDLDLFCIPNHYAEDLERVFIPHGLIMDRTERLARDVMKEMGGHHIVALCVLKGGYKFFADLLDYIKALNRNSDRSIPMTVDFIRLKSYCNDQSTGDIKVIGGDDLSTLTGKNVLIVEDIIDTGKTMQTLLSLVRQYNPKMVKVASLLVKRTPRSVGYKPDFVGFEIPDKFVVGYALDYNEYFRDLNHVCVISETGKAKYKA
As to the kind of experiment: Inhibition of recombinant human HGPRT expressed in Escherichia coli Sphi606 cells by spectrophotometric analysis.

Test [2] in a line: Inhibition of recombinant Plasmodium vivax HGXPRT expressed in Escherichia coli by spectrophotometric analysis.
The test system of test [3] is Human immunodeficiency virus. As to the kind of experiment: Antiviral activity against HIV. The class given is functional, organism-based.
The nature of test [4]: Inhibition of recombinant Plasmodium falciparum HGXPRT expressed in Escherichia coli Sphi606 cells by spectrophotometric analysis.
The subject of another test is Maize streak virus. As to the kind of experiment: Antiviral activity against MSV. The class given is functional.
For another test, the system named is Bordetella pertussis. As to the kind of experiment: Effect on Bordetella pertussis adenylyl cyclase.
The test system of another test is Hepatitis C virus. The test can be described thus: Antiviral activity against HCV. The class given is functional, organism-based. As to conditions: Hepacivirus hominis.

As for `Nc1nc2c(ncn2C[C@H](CF)OCCP(=O)(O)O)c(=O)[nH]1`, the Ki was 4.7 µM in test [1], 29 µM in test [2] and 1 µM in test [4]. The outcome (in test [3]; with Maize streak virus; in the test with Bordetella pertussis; in the test with Hepatitis C virus) was inactive.

For the molecule `Nc1nc(N)c2ncn(CC(CF)OCCP(=O)(O)O)c2n1` (stereo unspecified), the result (in test [3]; with Maize streak virus; in the test on Bordetella pertussis; in the test with Hepatitis C virus) was inactive.

Regarding `Nc1nc(O)c2ncn(C[C@H](CF)OCP(=O)(O)O)c2n1`, the Ki in test [1], in test [2] and in test [4] was not below 300 µM throughout.

As for `O=c1[nH]cnc2c1ncn2C[C@H](CF)OCCP(=O)(O)O`, the inhibitory constant (Ki) in test [1], in test [2] and in test [4] was not below 200 µM each time. Besides, the result (in test [3]; with Maize streak virus; in the test with Bordetella pertussis; in the test on Hepatitis C virus) was inactive.

As to `O=c1[nH]cnc2c1ncn2C[C@@H](CF)OCP(=O)(O)O`, the values for the Ki in test [1], in test [2] and in test [4] were not below 250 µM, not below 250 µM and 13 µM, respectively.

Consider `O=c1[nH]cnc2c1ncn2C[C@H](CF)OCP(=O)(O)O`, for which the results for the Ki in test [1], in test [2] and in test [4] were not below 200 µM, not below 200 µM and 63 µM, respectively.

Consider `Nc1nc2c(ncn2C[C@@H](CF)OCCP(=O)(O)O)c(=O)[nH]1`, for which the inhibition constant (Ki) was determined as 0.1 µM in test [1], 3.4 µM in test [2] and 1.2 µM in test [4]. Further, the result (in test [3]; with Maize streak virus; in the test with Bordetella pertussis; with Hepatitis C virus) was inactive.

Take `Nc1nc(NC2CC2)c2ncn(CC(CF)OCCP(=O)(O)O)c2n1` (stereo unspecified): the outcome (in test [3]; in the test with Maize streak virus; with Bordetella pertussis; with Hepatitis C virus) was inactive.

As for `O=c1[nH]cnc2c1ncn2CC(CF)OCCP(=O)(O)O` (racemic), the figures for the inhibition constant (Ki) in test [1], in test [2] and in test [4] were 5.4 µM, not below 100 µM and not below 200 µM, respectively. Also, the outcome (in test [3]; in the test with Maize streak virus; in the test with Bordetella pertussis; in the test with Hepatitis C virus) was inactive.

As for `Nc1nc(O)c2ncn(C[C@@H](CF)OCP(=O)(O)O)c2n1`, the Ki in test [1], in test [2] and in test [4] was not below 250 µM in each case.

As to `O=c1[nH]cnc2c1ncn2C[C@@H](CF)OCCP(=O)(O)O`, the inhibitory constant (Ki) is 1.6 µM in test [1], not below 300 µM in test [2] and not below 300 µM in test [4]. In addition, the outcome (in test [3]; in the test with Maize streak virus; in the test with Bordetella pertussis; in the test with Hepatitis C virus) was inactive.

Regarding `Nc1ncnc2c1ncn2CC(CF)OCCP(=O)(O)O` (stereo unspecified), the result (in test [3]; with Maize streak virus; in the test with Bordetella pertussis; in the test with Hepatitis C virus) was inactive.

With `Nc1nc2c(ncn2CC(CF)OCCP(=O)(O)O)c(=O)[nH]1` (racemic), the inhibitory constant (Ki) in test [1] was 3.7 µM; in test [2], 7 µM; in test [4], 1 µM. Moreover, the result (in test [3]; with Maize streak virus; in the test on Bordetella pertussis; with Hepatitis C virus) was inactive.
